According to patent US4175125A, “Method for treating methicillin resistant staphylococcus aureus” (Eli Lilly and Company, priority 1978, dated 1979):
Converted amounts (≈) assume the structure as drawn.

What was measured:
Format in all cases: cell-based
[1] = system: Staphylococcus aureus cultures; assay: Agar dilution susceptibility test, phenylthioacetyl cephalosporins vs methicillin resistant S. aureus (Example 9); settings: Staphylococcus aureus, read-out: MIC
Excerpt: This example compares the antibiotic activities of three known compounds, methicillin, cephalothin, and cephaloridine, with three compounds from the above examples, in terms of minimum inhibitory concentration (MIC) values in microgram/milliliter units against various isolates of Staphylococcus aureus cultures. The culture numbers and the procedures used to obtain the reported data are disclosed by W. E. Wick and D. A. Preston in their article "Heterogeneous Methicillin-Resistant Staphylococcus Aureus" which appeared in Progress in Antimicrobial And Anticancer Chemotherapy, Proceedings of the 6th International Congress of Chemotherapy, Volume, 1, U. of Tokyo Press, Tokyo, (1970). In these agardilution susceptibility tests, the inocula were diluted to 10^3 bacteria per spot. Cultures 3055 (benzylpenicillin sensitive) and H232 (benzylpenicillin-resistant) are controls. The remaining cultures are methicillin-resistant, and, except for 3136, are clinical isolates. Culture 3136 is a 4th transfer laboratory selected mutant.

[2] = system: Staphylococcus aureus cultures; assay: Broth dilution MIC in trypticase soy broth, low and high NaCl (Example 10); settings: for MIC: Staphylococcus aureus, TSB, read-out: MIC
Procedure: This example compares the antibiotic activities of methicillin, cephalothin and cephaloridine with the compounds of Examples 1, 2 and 3, in broth dilution tests. The MIC values, in μg/ml., are against the same Staphylococcus aureus cultures described in Example 9, except that in this example the cultures were grown in trypticase soy broth (TSB). Growing the cultures in two broth cultures, one having a low (0.5 percent) sodium chloride content and one having a high (5.0 percent) sodium chloride content is said to assist in identifying the methicillin-resistant cultures from those which are not methicillin-resistant. […] See Chabbert, Y. A., 1967 Postgrad. Med. J., 43 (suppl); 40-46. One expects that similar changes in MIC values for this type of culture to other β-lactam antibiotics, e.g., various penicillins and cephalosporins, to have similar implications. […] That is, methicillin-resistant S.aureus cultures are susceptible to the cephalosporin antibiotics used in this invention.

[3] = system: Staphylococcus aureus cultures; assay: Agar dilution MIC, Example 13 compound vs methicillin resistant Staphylococcus aureus; settings: read-out: MIC
Excerpt: The table which follows gives the minimum inhibitory concentration (MIC) in micrograms of compound per milliliter of culture (μg/ml), in comparison with similar MIC values for the known antibiotics methicillin, cephalothin and cephaloridine against the same strains of bacteria.

[4] = culture 3130, table part marked b
[5] = culture 3130, table part marked c
[6] = culture 3131, table part marked b
[7] = culture 3131, table part marked c
[8] = culture 3134, table part marked b
[9] = culture 3134, table part marked c
[10] = culture 3135, table part marked b
[11] = culture 3135, table part marked c
[12] = culture 3136, table part marked b
[13] = culture 3136, table part marked c
[14] = culture 3137, table part marked b
[15] = culture 3137, table part marked c
[16] = culture 3138, table part marked b
[17] = culture 3138, table part marked c
[18] = culture 3139, table part marked b
[19] = culture 3139, table part marked c
[20] = culture (Seattle) 966, table part marked b
[21] = culture (Seattle) 966, table part marked c
[22] = culture S61, table part marked b
[23] = culture S61, table part marked c

MIC ([1]; culture 3055 (control, benzylpenicillin sensitive), table part marked b): 1 µg/mL (≈ 2.63 µM)
MIC ([1]; culture 3055 (control, benzylpenicillin sensitive), table part marked c): 2 µg/mL (≈ 5.26 µM)
MIC [1, 4]: 8 µg/mL (≈ 21 µM)
MIC [1, 5]: 128 µg/mL (≈ 336 µM)
MIC [1, 6]: 8 µg/mL (≈ 21 µM)
MIC [1, 7]: 128 µg/mL (≈ 336 µM)
MIC ([1]; culture 3132, table part marked b): 8 µg/mL (≈ 21 µM)
MIC ([1]; culture 3132, table part marked c): 32 µg/mL (≈ 84.1 µM)
MIC ([1]; culture 3133, table part marked b): 8 µg/mL (≈ 21 µM)
MIC ([1]; culture 3133, table part marked c): 128 µg/mL (≈ 336 µM)
MIC [1, 8]: 16 µg/mL (≈ 42.1 µM)
MIC [1, 9]: 64 µg/mL (≈ 168 µM)
MIC [1, 10]: 8 µg/mL (≈ 21 µM)
MIC [1, 11]: 64 µg/mL (≈ 168 µM)
MIC [1, 12]: 8 µg/mL (≈ 21 µM)
MIC [1, 13]: 64 µg/mL (≈ 168 µM)
MIC [1, 14]: > 128 µg/mL
MIC [1, 15]: > 128 µg/mL
MIC [1, 16]: 16 µg/mL (≈ 42.1 µM)
MIC [1, 17]: > 128 µg/mL
MIC [1, 18]: 8 µg/mL (≈ 21 µM)
MIC [1, 19]: > 128 µg/mL
MIC [1, 20]: 8 µg/mL (≈ 21 µM)
MIC [1, 21]: 64 µg/mL (≈ 168 µM)
MIC ([1]; culture H232 (control, benzylpenicillin-resistant), table part marked b): 2 µg/mL (≈ 5.26 µM)
MIC ([1]; culture H232 (control, benzylpenicillin-resistant), table part marked c): 2 µg/mL (≈ 5.26 µM)
MIC ([1]; culture Kavarmark 1138501, table part marked b): 8 µg/mL (≈ 21 µM)
MIC ([1]; culture Kavarmark 1138501, table part marked c): 128 µg/mL (≈ 336 µM)
MIC [1, 22]: 8 µg/mL (≈ 21 µM)
MIC [1, 23]: 128 µg/mL (≈ 336 µM)
difference in MIC values in low versus high salt TSB cultures ([2]; 0.5 percent vs 5.0 percent NaCl, methicillin-resistant S. aureus): wide disparity in MIC values
MIC ([2]; culture 3055 (control), table part marked b): 2 µg/mL (≈ 5.26 µM)
MIC ([2]; culture 3055 (control), table part marked c): 2 µg/mL (≈ 5.26 µM)
MIC [2, 4]: 16 µg/mL (≈ 42.1 µM)
MIC [2, 5]: 64 µg/mL (≈ 168 µM)
MIC [2, 6]: 16 µg/mL (≈ 42.1 µM)
MIC [2, 7]: 128 µg/mL (≈ 336 µM)
MIC ([2]; culture 3132 (first column so headed), table part marked b): 32 µg/mL (≈ 84.1 µM)
MIC ([2]; culture 3132 (first column so headed), table part marked c): 64 µg/mL (≈ 168 µM)
MIC ([2]; culture 3132 (second column so headed), table part marked b): 8 µg/mL (≈ 21 µM)
MIC ([2]; culture 3132 (second column so headed), table part marked c): 128 µg/mL (≈ 336 µM)
MIC [2, 8]: 32 µg/mL (≈ 84.1 µM)
MIC [2, 9]: 64 µg/mL (≈ 168 µM)
MIC [2, 10]: 32 µg/mL (≈ 84.1 µM)
MIC [2, 11]: 64 µg/mL (≈ 168 µM)
MIC [2, 12]: 32 µg/mL (≈ 84.1 µM)
MIC [2, 13]: 128 µg/mL (≈ 336 µM)
MIC [2, 14]: > 128 µg/mL
MIC [2, 15]: > 128 µg/mL
MIC [2, 16]: 128 µg/mL (≈ 336 µM)
MIC [2, 17]: 128 µg/mL (≈ 336 µM)
MIC [2, 18]: 16 µg/mL (≈ 42.1 µM)
MIC [2, 19]: > 128 µg/mL
MIC [2, 20]: 8 µg/mL (≈ 21 µM)
MIC [2, 21]: 64 µg/mL (≈ 168 µM)
MIC ([2]; culture H232 (control), table part marked b): 4 µg/mL (≈ 10.5 µM)
MIC ([2]; culture H232 (control), table part marked c): 4 µg/mL (≈ 10.5 µM)
MIC ([2]; culture Kavarnick 1138501, table part marked b): 32 µg/mL (≈ 84.1 µM)
MIC ([2]; culture Kavarnick 1138501, table part marked c): 128 µg/mL (≈ 336 µM)
MIC [2, 22]: 16 µg/mL (≈ 42.1 µM)
MIC [2, 23]: 64 µg/mL (≈ 168 µM)
MIC ([2]; culture S, table part marked b): 16 µg/mL (≈ 42.1 µM)
MIC ([2]; culture S, table part marked c): 16 µg/mL (≈ 42.1 µM)
MIC ([3]; culture 3055 (control), Trypticase Soy Agar with 4.5% NaCl added (5% NaCl)): 1 µg/mL (≈ 2.63 µM)
MIC ([3]; culture 3055 (control), Trypticase Soy Agar, 0.5% NaCl): 1 µg/mL (≈ 2.63 µM)
MIC ([3]; culture 3130, Trypticase Soy Agar with 4.5% NaCl added (5% NaCl)): 16 µg/mL (≈ 42.1 µM)
MIC ([3]; culture 3130, Trypticase Soy Agar, 0.5% NaCl): 4 µg/mL (≈ 10.5 µM)
MIC ([3]; culture 3131, Trypticase Soy Agar with 4.5% NaCl added (5% NaCl)): 32 µg/mL (≈ 84.1 µM)
MIC ([3]; culture 3131, Trypticase Soy Agar, 0.5% NaCl): 4 µg/mL (≈ 10.5 µM)
MIC ([3]; culture 3132, Trypticase Soy Agar with 4.5% NaCl added (5% NaCl)): 8 µg/mL (≈ 21 µM)
MIC ([3]; culture 3132, Trypticase Soy Agar, 0.5% NaCl): 4 µg/mL (≈ 10.5 µM)
MIC ([3]; culture 3133, Trypticase Soy Agar with 4.5% NaCl added (5% NaCl)): 2 µg/mL (≈ 5.26 µM)
MIC ([3]; culture 3133, Trypticase Soy Agar, 0.5% NaCl): 2 µg/mL (≈ 5.26 µM)
MIC ([3]; culture 3134, Trypticase Soy Agar with 4.5% NaCl added (5% NaCl)): 32 µg/mL (≈ 84.1 µM)
MIC ([3]; culture 3134, Trypticase Soy Agar, 0.5% NaCl): 8 µg/mL (≈ 21 µM)
MIC ([3]; culture 3135, Trypticase Soy Agar with 4.5% NaCl added (5% NaCl)): 32 µg/mL (≈ 84.1 µM)
MIC ([3]; culture 3135, Trypticase Soy Agar, 0.5% NaCl): 4 µg/mL (≈ 10.5 µM)
MIC ([3]; culture 3136, Trypticase Soy Agar with 4.5% NaCl added (5% NaCl)): 64 µg/mL (≈ 168 µM)
MIC ([3]; culture 3136, Trypticase Soy Agar, 0.5% NaCl): 4 µg/mL (≈ 10.5 µM)
MIC ([3]; culture 3137, Trypticase Soy Agar with 4.5% NaCl added (5% NaCl)): 64 µg/mL (≈ 168 µM)
MIC ([3]; culture 3137, Trypticase Soy Agar, 0.5% NaCl): 8 µg/mL (≈ 21 µM)
MIC ([3]; culture 3138, Trypticase Soy Agar with 4.5% NaCl added (5% NaCl)): 32 µg/mL (≈ 84.1 µM)
MIC ([3]; culture 3138, Trypticase Soy Agar, 0.5% NaCl): 8 µg/mL (≈ 21 µM)
MIC ([3]; culture 3139, Trypticase Soy Agar with 4.5% NaCl added (5% NaCl)): 1 µg/mL (≈ 2.63 µM)
MIC ([3]; culture 3139, Trypticase Soy Agar, 0.5% NaCl): 2 µg/mL (≈ 5.26 µM)
MIC ([3]; culture H232 (control), Trypticase Soy Agar with 4.5% NaCl added (5% NaCl)): 1 µg/mL (≈ 2.63 µM)
MIC ([3]; culture H232 (control), Trypticase Soy Agar, 0.5% NaCl): 2 µg/mL (≈ 5.26 µM)
MIC ([3]; culture Havarmak 1136501, Trypticase Soy Agar with 4.5% NaCl added (5% NaCl)): 64 µg/mL (≈ 168 µM)
MIC ([3]; culture Havarmak 1136501, Trypticase Soy Agar, 0.5% NaCl): 8 µg/mL (≈ 21 µM)
MIC ([3]; culture S 61, Trypticase Soy Agar with 4.5% NaCl added (5% NaCl)): 32 µg/mL (≈ 84.1 µM)
MIC ([3]; culture S 61, Trypticase Soy Agar, 0.5% NaCl): 4 µg/mL (≈ 10.5 µM)
MIC ([3]; culture Seattle 966, Trypticase Soy Agar with 4.5% NaCl added (5% NaCl)): 16 µg/mL (≈ 42.1 µM)
MIC ([3]; culture Seattle 966, Trypticase Soy Agar, 0.5% NaCl): 4 µg/mL (≈ 10.5 µM)
Structure (SMILES): COc1cccc(OC)c1C(=O)N[C@@H]1C(=O)N2[C@@H]1SC(C)(C)[C@@H]2C(=O)O [Methicillin, methicillin]
